Assay results taken from PubChem BioAssay (NCI).
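Five compound concentrations were applied to cells in 96-well plates for 48 hours; endpoints were derived by simple linear interpolation of the resulting dose-response curve. Here, GI50 denotes the concentration required for 50% inhibition of growth. TGI: total growth inhibition.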

How the values were obtained:
Assay in all cases: inhibition of tumour cell growth, NCI panel, 48 h
HCT-15 colon = tested on: HCT-15 colon
KM12 colon = tested on: KM12 colon
NCI-H226 lung = tested on: NCI-H226 lung
ACHN renal = tested on: ACHN renal
OVCAR-8 ovarian = tested on: OVCAR-8 ovarian
HCT-116 colon = tested on: HCT-116 colon
HCC-2998 colon = tested on: HCC-2998 colon
T-47D breast = tested on: T-47D breast
BT-549 breast = tested on: BT-549 breast
NCI/ADR-RES ovarian = tested on: NCI/ADR-RES ovarian

`Cc1ccc(/C=N/NS(=O)(=O)c2ccccc2)cc1C` was tested, and the TGI (HCT-15 colon) was over 100 µM, the TGI (KM12 colon) was over 100 µM and the TGI (NCI-H226 lung) was over 100 µM. For the same compound, the TGI (ACHN renal) was over 100 µM, the TGI (OVCAR-8 ovarian) was over 100 µM and the TGI (HCT-116 colon) was over 100 µM. The TGI (HCC-2998 colon) was over 100 µM.
Work on `C1C[OH+]CCNCC[OH+]CC[OH+]CCN1.N.[Cl-].[Pt+4]` yielded a GI50 (HCT-15 colon) of 40.4 µM, a TGI (HCT-15 colon) of over 100 µM and a GI50 (KM12 colon) of 29.5 µM. For the same compound, the TGI (KM12 colon) was over 100 µM, the GI50 (NCI-H226 lung) was 38.2 µM and the TGI (NCI-H226 lung) was over 100 µM. It also gave a GI50 (ACHN renal) of 42 µM, a TGI (ACHN renal) of over 100 µM and a GI50 (OVCAR-8 ovarian) of 18.8 µM. It also gave a TGI (OVCAR-8 ovarian) of over 100 µM, a GI50 (HCT-116 colon) of 32.9 µM and a TGI (HCT-116 colon) of over 100 µM. It also gave a GI50 (HCC-2998 colon) of 54.1 µM and a TGI (HCC-2998 colon) of over 100 µM.
`O=S(=O)(O)n1ccnc1` (tested in a mixture with another compound) was tested, and the TGI (HCT-15 colon) was over 100 µM, the TGI (KM12 colon) was over 100 µM and the TGI (NCI-H226 lung) was over 100 µM. The TGI (T-47D breast) was over 100 µM, the TGI (ACHN renal) was over 100 µM and the TGI (BT-549 breast) was over 100 µM. For the same compound, the TGI (OVCAR-8 ovarian) was over 100 µM, the TGI (HCT-116 colon) was over 100 µM and the TGI (NCI/ADR-RES ovarian) was over 100 µM.
`CCCCCCCC(=O)OCC1OC(n2cc(F)c(=O)[nH]c2=O)C(N)C(O)C1O` (stereo unspecified) gave a TGI (HCT-15 colon) of over 100 µM, a TGI (KM12 colon) of over 100 µM and a TGI (NCI-H226 lung) of over 100 µM. For the same compound, the TGI (ACHN renal) was over 100 µM, the TGI (OVCAR-8 ovarian) was over 100 µM and the TGI (HCT-116 colon) was over 100 µM. The TGI (HCC-2998 colon) was over 100 µM.
In the case of `CCC[CH2][Sn]1([CH2]CCC)[O]CC[S]1`, the GI50 (HCT-15 colon) is reported as 0.799 µM, the TGI (HCT-15 colon) is reported as 2.25 µM and the GI50 (KM12 colon) is reported as 1.19 µM. The TGI (KM12 colon) was 3.02 µM, the GI50 (NCI-H226 lung) was 1.02 µM and the TGI (NCI-H226 lung) was 2.36 µM. The GI50 (ACHN renal) was 1.03 µM, the TGI (ACHN renal) was 2.23 µM and the GI50 (OVCAR-8 ovarian) was 1.19 µM. The TGI (OVCAR-8 ovarian) was 2.68 µM, the GI50 (HCT-116 colon) was 1.16 µM and the TGI (HCT-116 colon) was 2.9 µM. For the same compound, the GI50 (HCC-2998 colon) was 1.05 µM and the TGI (HCC-2998 colon) was 2.26 µM.
In the case of `O=C(CCCC(=O)N/N=C/c1cc(Cl)ccc1O)N/N=C\c1cc(Cl)ccc1O`, the GI50 (HCT-15 colon) is reported as 0.574 µM, the TGI (HCT-15 colon) is reported as over 100 µM and the GI50 (KM12 colon) is reported as 3.98 µM. The TGI (KM12 colon) was over 100 µM, the GI50 (NCI-H226 lung) was 6.64 µM and the TGI (NCI-H226 lung) was 65.7 µM. For the same compound, the GI50 (T-47D breast) was 3.23 µM, the TGI (T-47D breast) was over 100 µM and the GI50 (ACHN renal) was 1.58 µM. For the same compound, the TGI (ACHN renal) was over 100 µM, the GI50 (BT-549 breast) was 7.34 µM and the TGI (BT-549 breast) was over 100 µM. For the same compound, the GI50 (OVCAR-8 ovarian) was 2.86 µM, the TGI (OVCAR-8 ovarian) was over 100 µM and the GI50 (HCT-116 colon) was 3.75 µM. It also gave a TGI (HCT-116 colon) of over 100 µM, a GI50 (NCI/ADR-RES ovarian) of 3.44 µM and a TGI (NCI/ADR-RES ovarian) of over 100 µM.
For `CC[O-].CC[O-].O=C([CH-]C(=O)c1ccccc1)CCCCCCC(=O)[CH-]C(=O)c1ccccc1.[Ti+4]`, the GI50 (HCT-15 colon) was over 100 µM, the TGI (HCT-15 colon) was over 100 µM and the GI50 (KM12 colon) was over 100 µM. It also gave a TGI (KM12 colon) of over 100 µM, a GI50 (ACHN renal) of over 100 µM and a TGI (ACHN renal) of over 100 µM. For the same compound, the GI50 (OVCAR-8 ovarian) was over 100 µM, the TGI (OVCAR-8 ovarian) was over 100 µM and the GI50 (HCC-2998 colon) was over 100 µM. For the same compound, the TGI (HCC-2998 colon) was over 100 µM.
`CN=C1CN=C(OP(=O)(N2CCOCC2)N2CCOCC2)c2cc(Cl)ccc2N1` was tested, and the TGI (HCT-15 colon) was over 100 µM, the TGI (KM12 colon) was over 100 µM and the TGI (NCI-H226 lung) was over 100 µM. The TGI (ACHN renal) was over 100 µM, the TGI (OVCAR-8 ovarian) was over 100 µM and the TGI (HCT-116 colon) was over 100 µM. The TGI (HCC-2998 colon) was over 100 µM.
In the case of `CC(=O)[CH-]C(C)=O.CC(=O)[CH-]C(C)=O.[Cl-].[O]=[V]`, the GI50 (HCT-15 colon) is reported as 36.8 µM, the TGI (HCT-15 colon) is reported as over 100 µM and the GI50 (NCI-H226 lung) is reported as 27.5 µM. For the same compound, the TGI (NCI-H226 lung) was 76.1 µM, the GI50 (OVCAR-8 ovarian) was 46.4 µM and the TGI (OVCAR-8 ovarian) was over 100 µM. The GI50 (HCT-116 colon) was 19.1 µM, the TGI (HCT-116 colon) was 48.3 µM and the GI50 (HCC-2998 colon) was 37.1 µM. For the same compound, the TGI (HCC-2998 colon) was over 100 µM.
